± gives the standard deviation of the averaged measurements.
Legend:
[1] = tested on: ST8814; assay: drug sensitivity score (DSS, CellTox-Green cytotoxicity, 72 h) (DSS (dimensionless)); higher = more cytotoxic; extreme values may be limits of the assay
In short: (§1)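 MPNST cell lines and primary human Schwann cells were grown for 72 h at 37 °C in 384-well plates containing five 10-fold compound dilutions. CellTox-Green, added before seeding at a final 1:1000 dilution, gave fluorescence from DNA released by disrupted cells, and signals were scaled to vehicle and positive-control wells. Curves were fitted with a four-parameter logistic model. Drug sensitivity score and relative IC50 come from these fits, with IC50 censored at the top concentration.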

[2] = tested on: HSC1 (primary human Schwann cells); assay: as above
In short: as §1

[3] = tested on: HSC2 (primary human Schwann cells); assay: as above
In short: as §1

[4] = tested on: S1507-2; assay: as above
In short: as §1

[5] = tested on: HS-PSS; assay: as above
In short: as §1

[6] = tested on: STS26T; assay: as above
In short: as §1

[7] = tested on: ST8814; assay: % inhibition of CellTiter-Glo viability at highest tested concentration (72 h), relative to DMSO and benzethonium chloride controls; higher = more inhibition
In short: (§2)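 Viability of MPNST cell lines and primary human Schwann cells was read as CellTiter-Glo ATP luminescence after 72 h at 37 °C, 5% CO2, in 384-well plates seeded with 750–1000 cells per well. Each compound had been preprinted at five concentrations in 10-fold steps. Signals were scaled between vehicle and positive-control wells, duplicates averaged where present, and fitted with four-parameter logistic curves. Drug sensitivity score and relative IC50 (censored at the top concentration) come from those fits, and percent inhibition is taken at the top concentration.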

[8] = tested on: YST-1; assay: as above
In short: as §2

[9] = tested on: HSC1 (primary human Schwann cells); assay: as above
In short: as §2

[10] = tested on: HSC2 (primary human Schwann cells); assay: as above
In short: as §2

[11] = tested on: S1507-2; assay: as above
In short: as §2

[12] = tested on: HS-PSS; assay: as above
In short: as §2

[13] = tested on: S462; assay: as above
In short: as §2

[14] = tested on: HS-Sch-2; assay: as above
In short: as §2

[15] = tested on: STS26T; assay: as above
In short: as §2

[16] = tested on: ST8814; assay: drug sensitivity score (DSS, CellTiter-Glo viability, 72 h) (DSS (dimensionless)); higher = more sensitive; extreme values may be limits of the assay
In short: as §2

[17] = tested on: YST-1; assay: as above
In short: as §2

[18] = tested on: HSC1 (primary human Schwann cells); assay: as above
In short: as §2

[19] = tested on: HSC2 (primary human Schwann cells); assay: as above
In short: as §2

[20] = tested on: S1507-2; assay: as above
In short: as §2

[21] = tested on: HS-PSS; assay: as above
In short: as §2

[22] = tested on: S462; assay: as above
In short: as §2

[23] = tested on: HS-Sch-2; assay: as above
In short: as §2

[24] = tested on: STS26T; assay: as above
In short: as §2

CC[C@@H]1C(=O)OC[C@@H]1Cc1cncn1C [Pilocarpine] (max concentration tested 40000 nM)
drug sensitivity score [1]: 0 | drug sensitivity score [2]: 0 | drug sensitivity score [3]: 0 | drug sensitivity score [4]: 0 | drug sensitivity score [5]: 0 | drug sensitivity score [6]: 0 | % inhibition [7]: -5.43% | % inhibition [8]: -0.64% | % inhibition [9]: -5.47% | % inhibition [10]: -5.33% | % inhibition [11]: -0.921 ± 8.8% | % inhibition [12]: 3.53% | % inhibition [13]: -8.07 ± 3.1% | % inhibition [14]: 14.2% | % inhibition [15]: -5.95% | drug sensitivity score [16]: 0 | drug sensitivity score [17]: 0 | drug sensitivity score [18]: 0 | drug sensitivity score [19]: 0 | drug sensitivity score [20]: 0.028 ± 0.04 | drug sensitivity score [21]: 0 | drug sensitivity score [22]: 0 | drug sensitivity score [23]: 0.48 | drug sensitivity score [24]: 0

Cc1cc(Nc2nc(N[C@@H](C)c3ncc(F)cn3)ncc2Cl)[nH]n1 [AZD1480] (max concentration tested 1000 nM)
drug sensitivity score [1]: 0 | drug sensitivity score [2]: 0 | drug sensitivity score [3]: 0.662 | drug sensitivity score [4]: 5.43 ± 7.7 | drug sensitivity score [5]: 0 | drug sensitivity score [6]: 0 | % inhibition [7]: 10.4% | % inhibition [8]: 20.3% | % inhibition [9]: 37.6% | % inhibition [10]: 17% | % inhibition [11]: 11.6 ± 8% | % inhibition [12]: 20.3% | % inhibition [13]: 26.4 ± 3.4% | % inhibition [14]: 2.41% | % inhibition [15]: 18.1% | drug sensitivity score [16]: 0.0148 | drug sensitivity score [17]: 0.54 | drug sensitivity score [18]: 2.84 | drug sensitivity score [19]: 0.934 | drug sensitivity score [20]: 0.0872 ± 0.12 | drug sensitivity score [21]: 0.78 | drug sensitivity score [22]: 1.64 ± 0.2 | drug sensitivity score [23]: 0 | drug sensitivity score [24]: 0.3

Cn1c(=O)c(F)c(Nc2ccc(I)cc2F)c2c(=O)n(C[C@@H](O)CO)cnc21 [TAK-733] (max concentration tested 1000 nM)
drug sensitivity score [1]: 5.1 | drug sensitivity score [2]: 0 | drug sensitivity score [3]: 0 | drug sensitivity score [4]: 2.13 ± 3 | drug sensitivity score [5]: 0 | drug sensitivity score [6]: 0.198 | % inhibition [7]: 83.7% | % inhibition [8]: 14.2% | % inhibition [9]: 60.4% | % inhibition [10]: 56.7% | % inhibition [11]: 64.6 ± 1.8% | % inhibition [12]: 48.9% | % inhibition [13]: 76.5 ± 2.8% | % inhibition [14]: 63% | % inhibition [15]: 40.6% | drug sensitivity score [16]: 9.73 | drug sensitivity score [17]: 0.48 | drug sensitivity score [18]: 6.66 | drug sensitivity score [19]: 6.21 | drug sensitivity score [20]: 7.362 ± 0.071 | drug sensitivity score [21]: 4.36 | drug sensitivity score [22]: 10.3 ± 0.6 | drug sensitivity score [23]: 5.75 | drug sensitivity score [24]: 6.24

Cc1ccc(NC(=O)c2ccc(CN3CCN(C)CC3)cc2)cc1Nc1nccc(-c2cccnc2)n1 [Imatinib] (max concentration tested 10000 nM)
drug sensitivity score [1]: 1.72 | drug sensitivity score [2]: 0 | drug sensitivity score [3]: 0 | drug sensitivity score [4]: 0.237 ± 0.34 | drug sensitivity score [5]: 0.1 | drug sensitivity score [6]: 0 | % inhibition [7]: 33.4% | % inhibition [8]: 53.8% | % inhibition [9]: 9.96% | % inhibition [10]: 8.82% | % inhibition [11]: 49.5 ± 1.2% | % inhibition [12]: 58.8% | % inhibition [13]: 16.7 ± 2.7% | % inhibition [14]: 89.5% | % inhibition [15]: 23.5% | drug sensitivity score [16]: 1.36 | drug sensitivity score [17]: 4.29 | drug sensitivity score [18]: 0 | drug sensitivity score [19]: 0 | drug sensitivity score [20]: 3.9 ± 0.28 | drug sensitivity score [21]: 4.08 | drug sensitivity score [22]: 0.251 ± 0.2 | drug sensitivity score [23]: 4.96 | drug sensitivity score [24]: 0.675

COc1nc(N)nc2c1ncn2[C@@H]1O[C@H](CO)[C@@H](O)[C@@H]1O [Nelarabine] (max concentration tested 10000 nM)
drug sensitivity score [1]: 0 | drug sensitivity score [2]: 0 | drug sensitivity score [3]: 0.0142 | drug sensitivity score [4]: 3.71 ± 5.2 | drug sensitivity score [5]: 0 | drug sensitivity score [6]: 0 | % inhibition [7]: -1.03% | % inhibition [8]: -10.9% | % inhibition [9]: 1.53% | % inhibition [10]: 4.25% | % inhibition [11]: 7.84 ± 7.8% | % inhibition [12]: -6.14% | % inhibition [13]: 8.35 ± 0.2% | % inhibition [14]: 6.44% | % inhibition [15]: 6.48% | drug sensitivity score [16]: 0 | drug sensitivity score [17]: 0 | drug sensitivity score [18]: 0 | drug sensitivity score [19]: 0 | drug sensitivity score [20]: 1.62 ± 2.3 | drug sensitivity score [21]: 0 | drug sensitivity score [22]: 0 | drug sensitivity score [23]: 0 | drug sensitivity score [24]: 0

Cn1c(=O)n(-c2ccc(C(C)(C)C#N)cc2)c2c3cc(-c4cnc5ccccc5c4)ccc3ncc21 [Dactolisib] (max concentration tested 1000 nM)
drug sensitivity score [1]: 0 | drug sensitivity score [2]: 0 | drug sensitivity score [3]: 0 | drug sensitivity score [4]: 0 | drug sensitivity score [5]: 0.12 | drug sensitivity score [6]: 0 | % inhibition [7]: 64% | % inhibition [8]: 63.8% | % inhibition [9]: 75% | % inhibition [10]: 78.3% | % inhibition [11]: 66 ± 2.8% | % inhibition [12]: 69.8% | % inhibition [13]: 61 ± 0.72% | % inhibition [14]: 61.8% | % inhibition [15]: 67.7% | drug sensitivity score [16]: 14.3 | drug sensitivity score [17]: 14.7 | drug sensitivity score [18]: 19.4 | drug sensitivity score [19]: 19.4 | drug sensitivity score [20]: 15.8 ± 2.9 | drug sensitivity score [21]: 14.4 | drug sensitivity score [22]: 13.2 ± 0.72 | drug sensitivity score [23]: 13.9 | drug sensitivity score [24]: 17.2

O=C(c1cc(Cc2n[nH]c(=O)c3ccccc23)ccc1F)N1CCN(C(=O)C2CC2)CC1 [Olaparib] (max concentration tested 10000 nM)
drug sensitivity score [1]: 1.56 | drug sensitivity score [2]: 0 | drug sensitivity score [3]: 0.201 | drug sensitivity score [4]: 0.075 ± 0.11 | drug sensitivity score [5]: 0 | drug sensitivity score [6]: 1.04 | % inhibition [7]: 41.6% | % inhibition [8]: 69% | % inhibition [9]: 38.1% | % inhibition [10]: 39.3% | % inhibition [11]: 25.7 ± 8.5% | % inhibition [12]: 23.2% | % inhibition [13]: 61.15 ± 0.35% | % inhibition [14]: 32.8% | % inhibition [15]: 46.3% | drug sensitivity score [16]: 1.85 | drug sensitivity score [17]: 10.2 | drug sensitivity score [18]: 3.07 | drug sensitivity score [19]: 3.8 | drug sensitivity score [20]: 1.07 ± 0.15 | drug sensitivity score [21]: 1.4 | drug sensitivity score [22]: 4.85 ± 0.63 | drug sensitivity score [23]: 2.98 | drug sensitivity score [24]: 3.17

— the supplement of paper PMC5579334
